The source of these data is US9260408B2, “Dihydroquinoline-2-one derivatives” (Hoffmann-La Roche Inc., priority 2011, dated 2016).

Experiment [1] addresses T1, human CYP11B1 (Homo sapiens, UniProt P15538).
T1 construct: expressed in transfected cells
T1 sequence (P15538 25-503): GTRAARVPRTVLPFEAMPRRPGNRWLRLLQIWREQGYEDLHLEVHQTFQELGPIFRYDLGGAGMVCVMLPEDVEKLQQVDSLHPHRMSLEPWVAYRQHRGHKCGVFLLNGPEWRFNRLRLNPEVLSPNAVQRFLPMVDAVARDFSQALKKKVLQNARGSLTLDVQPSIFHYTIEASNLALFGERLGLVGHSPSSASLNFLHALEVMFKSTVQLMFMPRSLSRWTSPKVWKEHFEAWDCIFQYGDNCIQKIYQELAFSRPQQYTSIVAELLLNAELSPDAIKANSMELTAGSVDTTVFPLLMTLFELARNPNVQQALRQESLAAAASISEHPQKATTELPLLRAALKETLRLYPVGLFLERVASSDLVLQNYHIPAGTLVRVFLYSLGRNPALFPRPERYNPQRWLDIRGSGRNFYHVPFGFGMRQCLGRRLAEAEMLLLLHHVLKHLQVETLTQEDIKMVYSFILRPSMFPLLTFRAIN
Kind of experiment: G-402 cellular enzyme assay, human CYP11B1 (cortisol release, HTRF). In kind it is cell-based. Particulars: G-402 cells expressing human CYP11B1; 1 μM Deoxycortisol. From the text:
(§1) Herein we identified the use of the G-402 cell line as a host cell to ectopically express (transiently or stably) enzymes of the CYP11 family. Specifically we developed stable G-402 cells expressing ectopically human CYP11B1, human CYP11B2, human CYP11A1, cynomolgus CYP11B1 or cynomolgus CYP11B2 enzyme activity. Importantly the identified cell line G-402 expresses co-factors (adrenodoxin and adrenodoxin reductase) important for the activity of the CYP11 family and no relevant enzyme activity of the CYP11 family (in comparison to H295R cells) was detected in these cells. Therefore the G-402 cell line is uniquely suited as a host cell for the ectopic expression of enzymes from the CYP11 family.
(§2) G-402 cells can be obtained from ATCC(CRL-1440) and were originally derived from a renal leiomyoblastoma.
(§3) The expression plasmids contains the ORF for either human/cyno CYP11B1 or CYP11B2 under the control of a suitable promoter (CMV-promoter) and a suitable resistance marker (neomycin). Using standard techniques the expression plasmid is transfected into G-402 cells and these cells are then selected for expressing the given resistance markers. Individual cell-clones are then selected and assessed for displaying the desired enzymatic activity using 11-Deoxycorticosterone (Cyp11B2) or 11-Deoxycortisol (Cyp11B1) as a substrate.
(§4) G-402 cells expressing CYP11 constructs were established as described above and maintained in McCoy's 5a Medium Modified, ATCC Catalog No. 30-2007 containing 10% FCS and 400 μg/ml G418 (Geneticin) at 37° C. under an atmosphere of 5% CO2/95% air. Cellular enzyme assays were performed in DMEM/F12 medium containing 2.5% charcoal treated FCS and appropriate concentration of substrate (0.3-10 uM 11-Deoxycorticosterone, 11-Deoxycortisol or Corticosterone). For assaying enzymatic activity, cells were plated onto 96 well plates and incubated for 16 h. An aliquot of the supernatant is then transferred and analyzed for the concentration of the expected product (Aldosterone for CYP11B2; Cortisol for CYP11B1). The concentrations of these steroids can be determined using HTRF assays from CisBio analyzing either Aldosterone or Cortisol.
(§5) Inhibition of the release of produced steroids can be used as a measure of the respective enzyme inhibition by test compounds added during the cellular enzyme assay. The dose dependent inhibition of enzymatic activity by a compound is calculated by means of plotting added inhibitor concentrations (x-axes) vs. measured steroid/product level (y-axes). The inhibition is then calculated by fitting the following 4-parameter sigmoidal function (Morgan-Mercer-Flodin (MMF) model) to the raw data points using the least squares method:
(§6) [formula] wherein, A is the maximum y value, B is the EC50 factor determined using XLFit, C is the minimum y value and D is the slope value.
(§7) EC50 values for compounds claimed herein were tested with the G402-based assay system described. Cyp11B2 enzyme activity was tested in presence of 1 μM Deoxycorticosterone and variable amounts of inhibitors; Cyp11B1 enzyme activity was tested in presence of 1 μM Deoxycortisol and variable amounts of inhibitors.

For experiment [2], the target named is T2, human CYP11B2 (Homo sapiens, UniProt P19099).
T2 construct: expressed in transfected cells
T2 sequence (P19099 25-503): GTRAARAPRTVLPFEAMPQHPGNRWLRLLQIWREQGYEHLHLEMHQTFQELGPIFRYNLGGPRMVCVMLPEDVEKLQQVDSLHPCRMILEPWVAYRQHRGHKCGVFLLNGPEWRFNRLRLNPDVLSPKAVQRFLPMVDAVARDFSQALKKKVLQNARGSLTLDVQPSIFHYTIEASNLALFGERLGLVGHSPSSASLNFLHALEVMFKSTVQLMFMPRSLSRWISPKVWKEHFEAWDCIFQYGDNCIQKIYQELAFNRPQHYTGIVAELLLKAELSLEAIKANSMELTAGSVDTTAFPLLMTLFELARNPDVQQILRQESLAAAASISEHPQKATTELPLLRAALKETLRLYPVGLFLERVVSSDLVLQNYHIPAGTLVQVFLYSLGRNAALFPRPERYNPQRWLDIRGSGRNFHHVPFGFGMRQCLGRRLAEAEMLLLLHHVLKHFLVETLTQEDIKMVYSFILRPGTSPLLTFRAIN
Kind of experiment: G-402 cellular enzyme assay, human CYP11B2 (aldosterone release, HTRF). In kind it is cell-based. Particulars: G-402 cells expressing human CYP11B2; 1 μM Deoxycorticosterone.
Text: as §1, §2, §3, §4, §5, §6, §7
For orientation: Time-resolved FRET reads energy transfer from a long-lived donor to a nearby acceptor.

Each structure is given as a SMILES string.

In the case of `CCC(=O)NC(C)c1cncc(-c2ccc3c(c2)CCC(=O)N3C)c1Cl` (single isomer, unassigned) [Example 261, N-{(R or S)-1-[4-Chloro-5-(1-methyl-2-oxo-1,2,3,4-tetrahydro-quinolin-6-yl)-pyridin-3-yl]-ethyl}-propionamide], the results for the EC50 in experiment [1] and in experiment [2] were 1220 nM and 62 nM, respectively.

Regarding `CCC(=O)NC(C)c1cncc(-c2cc3c(cc2F)N(C)C(=O)CC3)c1C` (single isomer, unassigned) [Example 264, N-{(R or S)-1-[5-(7-Fluoro-1-methyl-2-oxo-1,2,3,4-tetrahydro-quinolin-6-yl)-4-methyl-pyridin-3-yl]ethyl}-propionamide], the EC50 (in general, the concentration that produces a half-maximal response) was found to be 2920 nM in experiment [1] and 24 nM in experiment [2].

In the case of `CCC(=O)NC(C)c1cncc(-c2ccc3c(c2)CCC(=O)N3C)c1C` (single isomer, unassigned) [Example 266, N-{(R or S)-1-[4-Methyl-5-(1-methyl-2-oxo-1,2,3,4-tetrahydro-quinolin-6-yl)-pyridin-3-yl]-ethyl}-propionamide], the results for the EC50 in experiment [1] and in experiment [2] were 623 nM and 54 nM, respectively.

With `CCS(=O)(=O)Nc1cncc(-c2ccc3c(c2)CCC(=O)N3C)c1` [Example 1, Ethanesulfonic acid [5-(1-methyl-2-oxo-1,2,3,4-tetrahydro-quinolin-6-yl)-pyridin-3-yl]-amide], the EC50 in experiment [1] worked out at 3700 nM; in experiment [2], 170 nM.

For `CC(=O)OCC(=O)Nc1cncc(-c2ccc3c(c2)CCC(=O)N3C)c1` [Example 2, Acetic acid [5-(1-methyl-2-oxo-1,2,3,4-tetrahydro-quinolin-6-yl)-pyridin-3-ylcarbamoyl]-methyl ester], the EC50 in experiment [1] is over 3000 nM; in experiment [2], 430 nM.

In the case of `CN1C(=O)CCc2cc(-c3cncc(NC(=O)CO)c3)ccc21` [Example 3, 2-Hydroxy-N-[5-(1-methyl-2-oxo-1,2,3,4-tetrahydro-quinolin-6-yl)-pyridin-3-yl]-acetamide], the results for the EC50 in experiment [1] and in experiment [2] were over 3000 nM and 715 nM, respectively.

As for `CN1C(=O)CCc2cc(-c3cncc(NCCO)c3)ccc21` [Example 4, 6-[5-(2-Hydroxy-ethylamino)-pyridin-3-yl]-1-methyl-3,4-dihydro-1H-quinolin-2-one], the results for the EC50 in experiment [1] and in experiment [2] were 350 nM and 11 nM, respectively.

On to `CN1C(=O)CCc2cc(-c3cncc(N4CCC[C@H]4CO)c3)ccc21` [Example 5, 6-[5-((S)-2-Hydroxymethyl-pyrrolidin-1-yl)-pyridin-3-yl]-1-methyl-3,4-dihydro-1H-quinolin-2-one], for which the values for the EC50 in experiment [1] and in experiment [2] were 1080 nM and 19 nM, respectively.

As for `CN1C(=O)CCc2cc(-c3cncc(N4CCC[C@@H]4CO)c3)ccc21` [Example 6, 6-[5-((R)-2-Hydroxymethyl-pyrrolidin-1-yl)-pyridin-3-yl]-1-methyl-3,4-dihydro-1H-quinolin-2-one], the results for the EC50 in experiment [1] and in experiment [2] were 3340 nM and 98 nM, respectively.

For the compound `CN1C(=O)CCc2cc(-c3cncc(CN4CCC[C@H]4CO)c3)ccc21` [Example 7, 6-[5-((S)-2-Hydroxymethyl-pyrrolidin-1-ylmethyl)-pyridin-3-yl]-1-methyl-3,4-dihydro-1H-quinolin-2-one], the EC50 in experiment [1] came to 570 nM; in experiment [2] it was 56 nM.

In the case of `CN1C(=O)CCc2cc(-c3cncc(CN4C(=O)CC[C@H]4CO)c3)ccc21` [Example 8, 6-[5-((S)-2-Hydroxymethyl-5-oxo-pyrrolidin-1-ylmethyl)-pyridin-3-yl]-1-methyl-3,4-dihydro-1H-quinolin-2-one], the EC50 in experiment [1] worked out at 2330 nM; in experiment [2] it was 49 nM.

As for `CCNC[C@@H]1CCCN1c1cncc(-c2ccc3c(c2)CCC(=O)N3C)c1` [Example 9, 6-[5-((S)-2-Ethylaminomethyl-pyrrolidin-1-yl)-pyridin-3-yl]-1-methyl-3,4-dihydro-1H-quinolin-2-one], the EC50 in experiment [1] was over 10000 nM; in experiment [2], 829 nM.

Regarding `COC[C@@H]1CCCN1c1cncc(-c2ccc3c(c2)CCC(=O)N3C)c1` [Example 10, 6-[5-((S)-2-Methoxymethyl-pyrrolidin-1-yl)-pyridin-3-yl]-1-methyl-3,4-dihydro-1H-quinolin-2-one], the EC50 in experiment [1] was determined as 170 nM; in experiment [2], 20 nM.

With `CN1C(=O)CCc2cc(-c3cncc(N4CCC[C@H]4Cn4cncn4)c3)ccc21` [Example 11], the EC50 came out at 410 nM in experiment [1] and 76 nM in experiment [2].

Take `CN1C(=O)CCc2cc(-c3cncc(NCc4ccccc4)c3)ccc21` [Example 12]: the EC50 in experiment [1] was 50 nM; in experiment [2], 2 nM.

On to `CN1C(=O)CCc2cc(-c3cncc(N4C(=O)CC[C@H]4CO)c3)ccc21` [Example 13], for which the EC50 in experiment [1] came out at 17900 nM; in experiment [2] it was 319 nM.

For the compound `CN1C(=O)CCc2cc(-c3cncc(N4CCCC4=O)c3)ccc21` [Example 14], the EC50 was determined as 1570 nM in experiment [1] and 308 nM in experiment [2].

In the case of `CCS(=O)(=O)NCc1cncc(-c2ccc3c(c2)CCC(=O)N3C)c1` [Example 15], the EC50 in experiment [1] was found to be 1200 nM; in experiment [2] it was 19 nM.

Take `CCS(=O)(=O)NCc1cncc(-c2cc3c(cc2F)N(C)C(=O)CC3)c1` [Example 16, ethanesulfonic acid [5-(7-fluoro-1-methyl-2-oxo-1,2,3,4-tetrahydro-quinolin-6-yl)-pyridin-3-ylmethyl]-amide]: the EC50 in experiment [1] stood at 860 nM; in experiment [2], 11 nM.

Consider `CCS(=O)(=O)NCc1cncc(-c2ccc3c(c2)C(C)(C)CC(=O)N3C)c1` [Example 17], for which the EC50 in experiment [1] is over 10000 nM; in experiment [2], 4650 nM.

Regarding `CN1C(=O)CCc2cc(-c3cncc(CN4CCCC4=O)c3)ccc21` [Example 18], the figures for the EC50 in experiment [1] and in experiment [2] were 750 nM and 58 nM, respectively.

For `CN1C(=O)CCc2cc(-c3cncc(CN4CCCCC4=O)c3)ccc21` [Example 19], the figures for the EC50 in experiment [1] and in experiment [2] were 800 nM and 23 nM, respectively.

Regarding `CN1C(=O)CCc2cc(-c3cncc(CN4CCS(=O)(=O)CC4)c3)ccc21` [Example 20], the EC50 in experiment [1] was found to be 20 nM; in experiment [2] it was 3 nM.

As to `COC[C@@H]1CCCN1Cc1cncc(-c2ccc3c(c2)CCC(=O)N3C)c1` [Example 21], the EC50 in experiment [1] worked out at 260 nM; in experiment [2], 21 nM.

Turning to `COC(=O)[C@@H]1CCCN1Cc1cncc(-c2ccc3c(c2)CCC(=O)N3C)c1` [Example 22], the EC50 in experiment [1] turned out to be 100 nM; in experiment [2] it was 25 nM.

With `CN1C(=O)CCc2cc(-c3cncc(CN4CCC[C@H]4COCC(F)(F)F)c3)ccc21` [Example 23], the results for the EC50 in experiment [1] and in experiment [2] were 390 nM and 32 nM, respectively.

In the case of `CN1C(=O)CCc2cc(-c3cncc(NCCO)n3)ccc21` [Example 24], the EC50 is 220 nM in experiment [1] and 7 nM in experiment [2].
